Assay results as given in US9814732B2, “Ulipristal acetate for prevention and treatment of breast tumors” (LABORATOIRE HRA-PHARMA, priority 2012, dated 2017).

Legend:
PR = molecular target: T1, PR (Homo sapiens, UniProt P06401); experiment: MMTV-Luc reporter gene transactivation in HBE cells (MMTV-Luc alone); format: cell-based; conditions: P 100 nM, p<0.05
T1 sequence (P06401 1-933): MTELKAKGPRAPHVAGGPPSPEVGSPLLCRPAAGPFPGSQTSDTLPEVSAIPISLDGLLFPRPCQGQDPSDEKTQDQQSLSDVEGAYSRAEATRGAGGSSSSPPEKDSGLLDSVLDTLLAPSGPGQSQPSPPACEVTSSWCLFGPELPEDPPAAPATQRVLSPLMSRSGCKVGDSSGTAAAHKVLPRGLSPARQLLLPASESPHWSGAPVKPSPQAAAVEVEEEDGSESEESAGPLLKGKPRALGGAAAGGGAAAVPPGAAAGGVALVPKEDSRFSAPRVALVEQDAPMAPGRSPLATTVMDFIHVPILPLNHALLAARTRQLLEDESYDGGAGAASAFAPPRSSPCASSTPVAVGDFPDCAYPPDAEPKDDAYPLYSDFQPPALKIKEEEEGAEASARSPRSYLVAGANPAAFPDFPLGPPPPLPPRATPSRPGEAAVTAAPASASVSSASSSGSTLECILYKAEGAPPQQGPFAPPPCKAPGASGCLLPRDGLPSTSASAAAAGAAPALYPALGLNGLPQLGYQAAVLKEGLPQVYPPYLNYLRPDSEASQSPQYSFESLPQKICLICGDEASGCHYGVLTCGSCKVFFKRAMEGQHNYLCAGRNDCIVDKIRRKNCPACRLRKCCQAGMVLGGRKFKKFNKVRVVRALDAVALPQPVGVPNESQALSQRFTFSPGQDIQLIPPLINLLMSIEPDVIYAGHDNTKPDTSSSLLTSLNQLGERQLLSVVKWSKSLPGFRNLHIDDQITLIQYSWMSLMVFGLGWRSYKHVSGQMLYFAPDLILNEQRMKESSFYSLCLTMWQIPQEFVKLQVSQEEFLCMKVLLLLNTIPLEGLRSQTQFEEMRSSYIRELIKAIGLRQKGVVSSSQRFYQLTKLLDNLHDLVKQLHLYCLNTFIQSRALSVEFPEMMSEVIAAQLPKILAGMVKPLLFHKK
Procedure: T-47D and MCF-7 cell lines were respectively maintained in RPMI 1640 and in DMEM medium supplemented with 10% fetal calf serum (PAA Laboratory, Les Mureaux, France). […] Normal human breast epithelial cell (HBE) primary cultures were obtained from 20 women (aged 17-50 years). […] HBE cells were maintained in HAM F10 medium (PAA Laboratory, Les Mureaux, France) containing hydrocortisone (5 ng/ml), Triiodo-L-thyronine (6.5 ng/ml), choleratoxin (10 ng/ml), transferrin (5 mg/ml), insulin (0.016 U/ml), epidermal growth factor (10 ng/ml) (Sigma, St Quentin Fallavier, France) and 5% human serum (Etablissement Français du Sang). […]
Cells were transfected with reporter gene plasmids containing glucocorticoid and progesterone responsive elements (GRE/PRE): 1) the MMTV-Luc is a Mouse Mammary Tumor Virus Long Terminal Repeat promoter containing one GRE/PRE palindrome and three GRE/PRE hemi-palindromes upstream to firefly luciferase gene in pFC31 vector, 2) the GRELuc contains six copies of GRE/PRE palindrome upstream to firefly luciferase gene in pBL vector. […] At the end of the experiment, cells were lysed and luciferase activity was determined using the Luciferase Assay System (Promega, Charbonnières-les-bains, France). Beta galactosidase activity was assessed using the Galacto Star kit (Applied Biosystems, Courtaboeuf, France) to normalize luciferase activity data.

[1] = test system: PR target genes (FASN, cyclin A, BCL2, ALPL); experiment: qRT-PCR mRNA expression of PR target genes in HBE cells; format: cell-based, human; conditions: P and/or UPA 100 nM, E2 10 nM
Procedure: (§1) After seeding, cells were cultured for 24 h in serum and phenol red free medium. Then treatments were carried out in a phenol red free medium containing 5% dextran-charcoal stripped serum. Cells were treated with P or DEX (100 nM), alone or in combination with UPA, RU (1 nM to 1 μM) or CDB-3877 (100 nM). Control cells were treated with ethanol, at […] 1:1000 final ethanol concentration alone as vehicle or E2 (10 nM).
(§2) Total RNA was extracted using TriZOL Reagent (Invitrogen, Cergy-Pontoise, France).
(§3) 2 μg of total RNA was subjected to reverse transcription (RT) using random primers for 1 h at 37° C. 2 μl of RT product was diluted (1:10) and subjected to quantitative PCR using sequence specific primers (300 nM) and Brillant SYBR GREEN QPCR master mix (Fermentas, Saint-Rémy-lès-Chevreuse, France) on an Mx3000P apparatus (Agilent Technologies, Massy, France). Conditions were 1 cycle at 95° C. for 10 min followed by 40 cycles at 95° C. for 30 sec, 60° C. for 1 min and 72° C. for 30 sec. Gene expression values were normalized to the housekeeping gene 36B4. Time of steroid treatment was chosen to get the optimal stimulation for a given gene. ALPL and G0S8 mRNA were analyzed after 6 h of treatment. IEX-1, FASN, and BCL2 were analyzed after 24 h of treatment. Cyclin A mRNA was analyzed after 24 h for GR responses or 48 h for PR responses.

[2] = test system: PR target genes (FASN, cyclin A, BCL2, ALPL); experiment: qRT-PCR mRNA expression of PR target genes in T-47D cells; format: cell-based, human; conditions: P and/or UPA 100 nM
Procedure: as §1, §2, §3

HBE cells [3] = experiment: Tritiated thymidine incorporation (proliferation) in HBE cells; format: cell-based, human; conditions: 96 h, 100 nM
Procedure: as §1
(§4) After 24 h of hormonal treatment, cells were incubated with [methyl-1 3H] thymidine (Perkin Elmer, Courtaboeuf, France) for 48 h or 20 h for KBE or cancer cells, respectively at 37° C. After incubation cells were washed twice with PBS 1× and once with 5% trichloroacetic acid (TCA). Cells were incubated in 5% TCA for 15 min at 4° C. and lysed in NaOH 0.1 N for 30 min at 37° C. The total cell lysate was added to 5 ml of Ecolite scintillation liquid (MP biomedical, Illkirch, France) and radioactivity was counted with a β-counter HIDEX 300SL (ScienceTec, Courtaboeuf, France).

T-47D cells [4] = experiment: Tritiated thymidine incorporation (proliferation) in T-47D cells; format: cell-based, human; conditions: 48 h, 100 nM
Procedure: as §1, §4

HBE cells [5] = experiment: Apoptosis, sub-G1 quantification by flow cytometry in HBE cells; format: cell-based, human; conditions: 96 h, 100 nM
Procedure: as §1
(§5) After 96 h or 48 h of hormonal treatment, respectively, for HBE or MCF-7 and T-47D cells, cells were washed in PBS, matrix dissociated with accutase enzyme (PAA laboratory, Les Mureaux, France), and centrifuged 5 minutes at 1350 rpm. Cells were fixed and frozen at −20° C. in 70% ethanol. Before analysis, cells were washed in PBS and stained with 10 μg/ml propidium iodide in PBS (containing 0.835 U/ml RNase A) (Sigma, St Quentin Fallavier, France). For each sample at least 10 000 cells were counted in a BD LSR II flow cytometer (BD Biosciences, Le Pont de Claix, France). After gating out doublets and debris, cycle distribution was analyzed using the ModFit LT software (Verity Software House, USA).

T-47D cells [6] = experiment: Apoptosis, sub-G1 quantification by flow cytometry in T-47D cells; format: cell-based, human; conditions: 48 h, 100 nM
Procedure: as §1, §5

[7] = Hormone concentrations in serum of pellet-treated athymic mice; format: in vivo; conditions: female, NMRI nu/nu athymic, mouse, other: steroid pellets grafted onto the neck, 20 mg pellet (P from day 14, UPA from day 1), day 28, read-out: concentration in mice serum (mean±SEM)
Procedure: Four weeks old ovariectomized female NMRInu/nu 20 athymic mice were purchased from Janvier laboratory (Le Genest Saint Isle, France). Breast tissues samples were obtained from 6 women (aged 29-42 years). Human mammary gland tissue was cut into 2×2×2 mm fragments and 4 fragments were then subcutaneously xenografted onto the back of 4 mice per group. Four treatment groups were performed: control, E2, E2+P and E2+P+UPA. Treatments were administered by grafting steroid pellets onto the neck of each mouse. The experimental conditions were initially determined by using a dose range of hormones mixed with cholesterol into the pellets. Blood sample assays were performed after 2 weeks and 4 weeks of treatment to measure plasmatic hormonal concentrations. Finally, the dose of 0.3 mg for E2 and 20 mg for P and UPA were used, as it provides the expected blood concentrations. For the control groups, pellets containing only cholesterol were used. To reproduce menstrual cycle conditions, mice were grafted on the first day of experiment with cholesterol, E2 and/or UPA containing pellets and on the fourteen day with cholesterol or progesterone containing pellets in control and E2 groups, or in E+P and E2+P+UPA groups, respectively. Twenty eight days after the start of experiment, mice were sacrificed. Blood was collected for each mouse, and serum was frozen at −20° C. until hormone concentrations
Estradiol was measured by radioimmunoassay using Clinical Assays Estradiol-2 (Sorin Biomedica Diagnostics SpA, Saluggia, Italia). Progesterone levels were evaluated by UPLC-MSMS using Acquity UPLC and Quattro Premier XE (Waters, Milford Mass., USA).
UPA concentrations were measured using LC-MS/MS technique by MPI Research (State College, Pa., USA).

For CC(=O)[C@H]1CC[C@H]2[C@@H]3CCC4=CC(=O)CC[C@]4(C)[C@H]3CC[C@]12C [P, progesterone], the “luciferase expression (MMTV-Luc)” value (PR) was 1.38±0.11 control fold induction, the “BCL2 mRNA expression (PR response)” value ([1]; 24 h) was “decrease of BCL2 mRNA expression by P” and the “FASN mRNA expression” value ([1]; 24 h) was “induction of FASN mRNA expression”. For the same compound, the “cyclin A mRNA expression (PR response)” value ([1]; 48 h) was “down regulated cyclin A mRNA expression”, the “ALPL mRNA expression” value ([2]; 6 h) was “strong P mediated induction of ALPL transcript” and the “FASN mRNA expression” value ([2]; 24 h) was “induction of FASN mRNA expression”. For the same compound, the “BCL2 mRNA expression (PR response)” value ([2]; 24 h, p<0.01) was “decrease of BCL2 mRNA expression by P”, the “cyclin A mRNA expression (PR response)” value ([2]; 48 h) was “down regulated cyclin A mRNA expression” and the “cell proliferation ([3H] thymidine incorporation), compound alone” value (HBE cells [3]) was “anti-proliferative effect”. The “cell proliferation ([3H] thymidine incorporation), compound alone” value (T-47D cells [4]) was “anti-proliferative activity”, the “cell apoptosis (sub-G1 percentage), compound alone” value (HBE cells [5]) was “intense pro-apoptotic effect” and the “cell apoptosis (sub-G1 percentage), compound alone” value (T-47D cells [6]) was “increased the percentage of sub-G1 cells”. It also gave a concentration at 28 days [7] of 13.1 ± 1.14 ng/mL.
